Starred links: 1 amine or outer side, 2 acyl side, 3 side chain; linkers in the order of their positions; H or OH if unused. Non-standard residues stand in square brackets, D forms with d. Residues, ends and D or L forms follow the SMILES beside them. Groups on a side chain read outwards from the residue. *: point of attachment. C18 diacid = O=C(O)CCCCCCCCCCCCCCCCC(=O)*; γGlu = O=C(O)[C@H](CCC(=O)[*:2])N[*:1]; AEEA = NCCOCCOCC(=O)O; Aib = CC(C)(N)C(=O)O
Molecular target: T1, human CRF2α receptor (Homo sapiens, UniProt Q13324)
T1 construct: expressed in transfected cells; host or cells: TeloHEAC
T1 sequence (Q13324 1-411): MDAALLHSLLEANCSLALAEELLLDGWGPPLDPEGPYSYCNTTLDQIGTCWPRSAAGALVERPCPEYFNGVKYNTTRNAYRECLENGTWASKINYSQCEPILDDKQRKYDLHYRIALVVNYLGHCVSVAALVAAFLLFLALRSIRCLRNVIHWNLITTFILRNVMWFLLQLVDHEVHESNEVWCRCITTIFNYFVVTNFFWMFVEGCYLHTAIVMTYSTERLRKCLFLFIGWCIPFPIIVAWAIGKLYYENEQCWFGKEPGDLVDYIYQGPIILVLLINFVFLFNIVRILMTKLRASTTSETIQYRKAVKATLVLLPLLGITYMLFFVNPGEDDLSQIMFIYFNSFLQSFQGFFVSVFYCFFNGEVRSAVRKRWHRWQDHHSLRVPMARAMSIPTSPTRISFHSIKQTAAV
Assay: cAMP agonism at human CRF2 α receptor in TeloHEAC cells (Example 7)
Format: cell-based
Details: cAMP HTRF, TeloHEAC cells stably expressing human CRF2 α, 0% HSA; read-out: EC50 [nM], 0% HSA
Procedure: Agonism of compounds for human corticotropin-releasing factor 2α (CRF2 α receptor) was determined by functional assays measuring CAMP response of a TeloHEAC cell line stably expressing human CRF2 α receptor.
Cells were grown in a T175 culture flask placed at 37° C. to near confluence in medium (DMEM/10% FBS) and collected in 2 ml vials in cell culture medium containing 10% DMSO in a concentration of 10-50 million cells/ml. Each vial contained 1.8 ml cells. The vials were slowly frozen to −80° C. in isopropanol and then transferred in liquid nitrogen for storage. Prior to use, frozen cells were thawed quickly at 37° C. and washed (5 min at 900 rpm) with 20 ml cell buffer (1×HBSS; 20 mM HEPES; 0% or 0.1% HSA). Cells were resuspended in assay buffer (cell buffer plus 2 mM IBMX) and adjusted to a cell density of 1 million cells/ml. For measurement, 5 μl cells (final […]) and 5 μL of test compound were added to a 384-well plate, followed by incubation for 30 minutes at room temperature.
The CAMP content of cells was determined using a kit from Cisbio Corp. (cat. no. 62AM4PEC) based on HTRF (Homogenous Time Resolved Fluorescence). After addition of HTRF reagents diluted in lysis buffer (kit components), the plates were incubated for 1 h, followed by measurement of the fluorescence ratio at 665/620 nm. The percent activity value (E %) was calculated by setting 1000 nM of urocortin 2 (UCN2) as 100%. The in vitro potency of the compounds was quantified by determining the concentrations that caused 50% activation of maximal response (EC50).

Row | SMILES | EC50 [nM]
1 | CC[C@H](C)[C@H](N)C(=O)N[C@H](C(=O)N[C@@H](CC(C)C)C(=O)N[C@@H](CO)C(=O)N[C@@H](CC(C)C)C(=O)N[C@@H](CC(=O)O)C(=O)N[C@H](C(=O)N1CCC[C@H]1C(=O)N[C@H](C(=O)N[C@@H](CCCCN)C(=O)N[C@@H](CC(C)C)C(=O)N[C@@H](CCCCNC(=O)COCCOCCNC(=O)COCCOCCNC(=O)CC[C@H](NC(=O)CCCCCCCCCCCCCCCCC(=O)O)C(=O)O)C(=O)N[C@@H](CCC(N)=O)C(=O)N[C@@H](CCCCN)C(=O)N[C@@H](CC(C)C)C(=O)N[C@@H](CC(C)C)C(=O)N[C@@H](CCCCN)C(=O)N[C@@H](CCC(N)=O)C(=O)N[C@@H](CCC(=O)O)C(=O)N[C@@H](CCCNC(=N)N)C(=O)N[C@@H](CCC(N)=O)C(=O)N[C@@H](CCCNC(=N)N)C(=O)NC(C)(C)C(=O)N[C@@H](CCC(=O)O)C(=O)N[C@@H](CCCNC(=N)N)C(=O)N[C@@H](CCC(N)=O)C(=O)N[C@@H](CCC(N)=O)C(=O)N[C@@H](C)C(=O)N[C@@H](CCC(=O)O)C(=O)N[C@H](C(=O)N[C@@H](CC(N)=O)C(=O)N[C@@H](CCCCN)C(=O)N[C@@H](CCCNC(=N)N)C(=O)N[C@H](C(=O)N[C@@H](CC(C)C)C(=O)N[C@@H](CCC(=O)O)C(=O)N[C@@H](CCCNC(=N)N)C(=O)N[C@H](C(N)=O)C(C)C)[C@@H](C)CC)[C@@H](C)O)[C@@H](C)O)C(C)C)C(C)C [compound 38] (H-IVLSLDVPTKLK([AEEA-AEEA-γGlu-C18 diacid])QKLLKQERQR[Aib]ERQQAETNKRILERV-NH2) | 20.9
2 | CC[C@H](C)[C@H](N)C(=O)N[C@H](C(=O)N[C@@H](CC(C)C)C(=O)N[C@@H](CO)C(=O)N[C@@H](CC(C)C)C(=O)N[C@@H](CC(=O)O)C(=O)N[C@H](C(=O)N1CCC[C@H]1C(=O)N[C@H](C(=O)N[C@@H](CCCCN)C(=O)N[C@@H](CC(C)C)C(=O)N[C@@H](CCCCNC(=O)COCCOCCNC(=O)COCCOCCNC(=O)CC[C@H](NC(=O)CCCCCCCCCCCCCCCCC(=O)O)C(=O)O)C(=O)N[C@@H](CCC(N)=O)C(=O)N[C@H](C(=O)N[C@@H](CC(C)C)C(=O)N[C@@H](CC(C)C)C(=O)N[C@@H](CCC(=O)O)C(=O)N[C@@H](CCC(N)=O)C(=O)N[C@@H](CCC(=O)O)C(=O)N[C@@H](CCCNC(=N)N)C(=O)N[C@@H](CCC(N)=O)C(=O)N[C@@H](CCCNC(=N)N)C(=O)N[C@@H](CCCCN)C(=O)N[C@@H](CCC(=O)O)C(=O)N[C@@H](CCCNC(=N)N)C(=O)N[C@@H](CCC(N)=O)C(=O)N[C@@H](CCC(N)=O)C(=O)N[C@@H](C)C(=O)N[C@@H](CCC(=O)O)C(=O)N[C@H](C(=O)N[C@@H](CC(N)=O)C(=O)N[C@H](C(=O)N[C@@H](CCC(N)=O)C(=O)N[C@H](C(=O)N[C@@H](CC(C)C)C(=O)N[C@@H](C)C(=O)N[C@@H](CCC(N)=O)C(=O)N[C@H](C(N)=O)C(C)C)[C@@H](C)CC)C(C)C)[C@@H](C)O)[C@@H](C)CC)[C@@H](C)CC)C(C)C)C(C)C [compound 40] (H-IVLSLDVPIKLK([AEEA-AEEA-γGlu-C18 diacid])QILLEQERQRKERQQAETNVQILAQV-NH2; N-terminus assumed) | 15.4
3 | CC[C@H](C)[C@H](N)C(=O)N[C@H](C(=O)N[C@@H](CC(C)C)C(=O)N[C@@H](CO)C(=O)N[C@@H](CC(C)C)C(=O)N[C@@H](CC(=O)O)C(=O)N[C@H](C(=O)N1CCC[C@H]1C(=O)N[C@H](C(=O)N[C@@H](CCCCN)C(=O)N[C@@H](CC(C)C)C(=O)N[C@@H](CCCCNC(=O)COCCOCCNC(=O)COCCOCCNC(=O)CC[C@H](NC(=O)CCCCCCCCCCCCCCCCC(=O)O)C(=O)O)C(=O)N[C@@H](CCC(N)=O)C(=O)N[C@H](C(=O)N[C@@H](CC(C)C)C(=O)N[C@@H](CC(C)C)C(=O)N[C@@H](CCC(=O)O)C(=O)N[C@@H](CCC(N)=O)C(=O)N[C@@H](CCC(=O)O)C(=O)N[C@@H](CCCNC(=N)N)C(=O)N[C@@H](CCC(N)=O)C(=O)N[C@@H](CCCNC(=N)N)C(=O)N[C@@H](CCCCN)C(=O)N[C@@H](CCC(=O)O)C(=O)N[C@@H](CCCNC(=N)N)C(=O)N[C@@H](CCC(N)=O)C(=O)N[C@@H](CCC(N)=O)C(=O)N[C@@H](C)C(=O)N[C@@H](CCC(=O)O)C(=O)N[C@@H](CCCCN)C(=O)N[C@@H](CC(N)=O)C(=O)N[C@H](C(=O)N[C@@H](CCCNC(=N)N)C(=O)N[C@H](C(=O)N[C@@H](CC(C)C)C(=O)N[C@@H](CCC(=O)O)C(=O)N[C@@H](CCCNC(=N)N)C(=O)N[C@H](C(N)=O)C(C)C)[C@@H](C)CC)C(C)C)[C@@H](C)CC)[C@@H](C)CC)C(C)C)C(C)C [compound 41] (H-IVLSLDVPIKLK([AEEA-AEEA-γGlu-C18 diacid])QILLEQERQRKERQQAEKNVRILERV-NH2; N-terminus assumed) | 15.6
4 | CC[C@H](C)[C@H](N)C(=O)N[C@H](C(=O)N[C@@H](CC(C)C)C(=O)N[C@@H](CO)C(=O)N[C@@H](CC(C)C)C(=O)N[C@@H](CC(=O)O)C(=O)N[C@H](C(=O)N1CCC[C@H]1C(=O)N[C@H](C(=O)N[C@@H](CCCCN)C(=O)N[C@@H](CC(C)C)C(=O)N[C@@H](CCCCNC(=O)COCCOCCNC(=O)COCCOCCNC(=O)CC[C@H](NC(=O)CCCCCCCCCCCCCCCCC(=O)O)C(=O)O)C(=O)N[C@@H](CCC(N)=O)C(=O)N[C@H](C(=O)N[C@@H](CC(C)C)C(=O)N[C@@H](CC(C)C)C(=O)N[C@@H](CCC(=O)O)C(=O)N[C@@H](CCC(N)=O)C(=O)N[C@@H](CCC(=O)O)C(=O)N[C@@H](CCCNC(=N)N)C(=O)N[C@@H](CCC(N)=O)C(=O)N[C@@H](CCCNC(=N)N)C(=O)NC(C)(C)C(=O)N[C@@H](CCC(=O)O)C(=O)N[C@@H](CCCNC(=N)N)C(=O)N[C@@H](CCC(N)=O)C(=O)N[C@@H](CCC(N)=O)C(=O)N[C@@H](C)C(=O)N[C@@H](CCC(=O)O)C(=O)N[C@@H](CCCCN)C(=O)N[C@@H](CC(N)=O)C(=O)N[C@H](C(=O)N[C@@H](CCCNC(=N)N)C(=O)N[C@H](C(=O)N[C@@H](CC(C)C)C(=O)N[C@@H](CCC(=O)O)C(=O)N[C@@H](CCCNC(=N)N)C(=O)N[C@H](C(N)=O)C(C)C)[C@@H](C)CC)C(C)C)[C@@H](C)CC)[C@@H](C)CC)C(C)C)C(C)C [compound 42] (H-IVLSLDVPIKLK([AEEA-AEEA-γGlu-C18 diacid])QILLEQERQR[Aib]ERQQAEKNVRILERV-NH2) | 15.4
5 | CC[C@H](C)[C@H](N)C(=O)N[C@H](C(=O)N[C@@H](CC(C)C)C(=O)N[C@@H](CO)C(=O)N[C@@H](CC(C)C)C(=O)N[C@@H](CC(=O)O)C(=O)N[C@H](C(=O)N1CCC[C@H]1C(=O)N[C@H](C(=O)N[C@@H](CCCCN)C(=O)N[C@@H](CC(C)C)C(=O)N[C@@H](CCCCNC(=O)COCCOCCNC(=O)COCCOCCNC(=O)CC[C@H](NC(=O)CCCCCCCCCCCCCCCCC(=O)O)C(=O)O)C(=O)N[C@@H](CCC(N)=O)C(=O)N[C@H](C(=O)N[C@@H](CC(C)C)C(=O)N[C@@H](CC(C)C)C(=O)N[C@@H](CCC(=O)O)C(=O)N[C@@H](CCC(N)=O)C(=O)N[C@@H](C)C(=O)N[C@@H](CCCCN)C(=O)N[C@@H](CCC(N)=O)C(=O)N[C@@H](CCCCN)C(=O)N[C@@H](CCCCN)C(=O)N[C@@H](CCC(=O)O)C(=O)N[C@@H](CCCNC(=N)N)C(=O)N[C@@H](C)C(=O)N[C@@H](CCC(N)=O)C(=O)N[C@@H](C)C(=O)N[C@@H](CCC(=O)O)C(=O)N[C@H](C(=O)N[C@@H](CC(N)=O)C(=O)N[C@H](C(=O)N[C@@H](CCCNC(=N)N)C(=O)N[C@H](C(=O)N[C@@H](CC(C)C)C(=O)N[C@@H](CCC(=O)O)C(=O)N[C@@H](CCCNC(=N)N)C(=O)N[C@H](C(N)=O)C(C)C)[C@@H](C)CC)C(C)C)[C@@H](C)O)[C@@H](C)CC)[C@@H](C)CC)C(C)C)C(C)C [compound 44] (H-IVLSLDVPIKLK([AEEA-AEEA-γGlu-C18 diacid])QILLEQAKQKKERAQAETNVRILERV-NH2) | 13.7
